Measurements reported in ChEMBL document CHEMBL4765322, “Novel curcumin derivatives as P-glycoprotein inhibitors: Molecular modeling, synthesis and sensitization of multidrug resistant cells to doxorubicin” (Eur J Med Chem, 2020).

What was measured:
[1] = Cytotoxicity against human K562/4 cells assessed as reduction in cell viability measured after 72 hrs by MTT assay; type: cell-based; details: K562/4, 72 h
[2] = Inhibition of P-gp mediated multidrug resistance in human K562/4 cells assessed as sensitization of cells to doxorubicin by measuring reduction in cell viability preincubated with compound for 30 mins prior to 1 uM doxorubicin addition and measured after 72 hrs by MTT assay; type: cell-based
K562/4 = details: Homo sapiens
Description: Inhibition of P-gp-mediated doxorubicin efflux in human K562/4 cells assessed as minimal concentration required for the effect by flow cytometric analysis

Row | Structure (SMILES) | IC50 [1] [µM] | IC50 [2] [µM] | MED (K562/4) [µM]
1 | COc1cc(/C=C/c2cc(/C=C/c3ccc(O)c(OC)c3)n(-c3ccc(C(=O)OCC(F)(F)F)cc3)n2)ccc1O | > 25 |  | 
2 | COC(=O)c1ccc(-n2nc(/C=C/c3ccc(O)c(OC)c3)cc2/C=C/c2ccc(O)c(OC)c2)cc1 | 9.6 |  | 
3 | COc1ccc(/C=C/c2cc(/C=C/c3ccc(OC)c(OC)c3)n(-c3ccc(C(=O)N4CCCC4)cc3)n2)cc1OC | > 50 | 0.5 | 
4 | CCNC(=S)c1ccc(-n2nc(/C=C/c3ccc(OC)c(OC)c3)cc2/C=C/c2ccc(OC)c(OC)c2)cc1 | > 50 | 0.5 | 
5 | CCOC(=O)c1ccc(-n2nc(/C=C/c3ccc(O)c(OC)c3)cc2/C=C/c2ccc(O)c(OC)c2)cc1F | 5.4 |  | 
6 | CCNC(=O)c1ccc(-n2nc(/C=C/c3ccc(O)c(OC)c3)cc2/C=C/c2ccc(O)c(OC)c2)cc1 | 4.3 |  | 
7 | COc1cc(/C=C/c2cc(/C=C/c3ccc(O)c(OC)c3)n(-c3ccc(C(=O)OC(C)(C)C)cc3)n2)ccc1O | > 25 |  | 
8 | COc1cc(/C=C/c2cc(/C=C/c3ccc(O)c(OC)c3)n(-c3ccc(F)cc3)n2)ccc1O | 10.8 |  | 
9 | COc1cc(/C=C/c2cc(/C=C/c3ccc(O)c(OC)c3)n(-c3ccc(C(=O)OC/C=C(\C)CC/C=C(\C)CCC=C(C)C)cc3)n2)ccc1O | > 25 |  | 
10 | COc1cc2c(cc1OC)CN(CCc1ccc(NC(=O)c3cc(OC)c(OC)cc3NC(=O)c3cnc4ccccc4c3)cc1)CC2 |  |  | 1
11 | CCNS(=O)(=O)c1ccc(-n2nc(/C=C/c3ccc(OC)c(OC)c3)cc2/C=C/c2ccc(OC)c(OC)c2)cc1 | > 50 | 0.5 | 
12 | CCNC(=O)c1ccc(-n2nc(/C=C/c3ccc(OC)c(OC)c3)cc2/C=C/c2ccc(OC)c(OC)c2)cc1 | > 50 | 0.2 | 
13 | COc1cc(/C=C/c2cc(/C=C/c3ccc(O)c(OC)c3)n(-c3ccc(C(=O)OCC(C)C)cc3)n2)ccc1O | 6.4 |  | 
14 | CCOC(=O)c1ccc(-n2nc(/C=C/c3ccc(OC)c(OC)c3)cc2/C=C/c2ccc(OC)c(OC)c2)cc1[N+](=O)[O-] | > 50 |  | 
15 | CCOC(=O)c1ccc(-n2nc(/C=C/c3ccc(O)cc3)cc2/C=C/c2ccc(O)cc2)cc1F | 10.3 |  | 
16 | CCNC(=O)c1ccc(-n2nc(/C=C/c3ccc4c(c3)OCO4)cc2/C=C/c2ccc3c(c2)OCO3)cc1 | > 50 |  | 
17 | CCOC(=O)c1ccc(-n2nc(/C=C/c3ccc(OC)c(OC)c3)cc2/C=C/c2ccc(OC)c(OC)c2)cc1F | > 50 | 0.2 | 
18 | COc1cc(/C=C/c2cc(/C=C/c3ccc(O)c(OC)c3)n(-c3ccc(C(=O)OC/C=C(\C)CCC=C(C)C)cc3)n2)ccc1O | > 25 |  | 
19 | COc1cc(/C=C/c2cc(/C=C/c3ccc(O)c(OC)c3)n(-c3ccc(C(=O)OC(C)C)cc3)n2)ccc1O | 12.5 |  | 
20 | CCOC(=O)c1ccc(-n2nc(/C=C/c3ccc(O)c(OC)c3)cc2/C=C/c2ccc(O)c(OC)c2)cc1 | 10.2 |  | 
21 | CCOC(=O)c1ccc(-n2nc(/C=C/c3ccc(O)cc3)cc2/C=C/c2ccc(O)cc2)cc1 | 11.1 |  | 
22 | COc1ccc(/C=C/c2cc(/C=C/c3ccc(OC)c(OC)c3)n(-c3ccc(C(=O)NCC(C)C)cc3)n2)cc1OC | > 50 | 0.4 | 
23 | CCOC(=O)c1ccc(-n2nc(/C=C/c3ccc(OC)c(OC)c3)cc2/C=C/c2ccc(OC)c(OC)c2)cc1 | > 50 | 0.8 | 
